# Patent US20110015164A1, “METHOD OF TREATING MEN WITH METABOLIC AND ANTH[…]” (priority 2004, published 2011)
# Tested on: men with abdominal obesity, low to low-normal serum total testosterone levels and the metabolic syndrome
# Test: Placebo-controlled treatment study in abdominally obese men with low to low-normal testosterone and the metabolic syndrome
# Conditions: for increasing insulin sensitivity, treatment group relative to placebo / lowering triglycerides, treatment group relative to placebo / reducing visceral adipose tissue, treatment group relative to placebo: end of treatment
# Method: (§1) Approximately 200 men are recruited with abdominal obesity (waist circumference >102 cm), low to low-normal serum total testosterone levels (<450 ng/dL), and the metabolic syndrome per NCEP criteria. NCEP criteria for diagnosis of the metabolic syndrome in men includes 3 of the following 5 components: Fasting glucose≧110 mg/dL, TG≧150 mg/dL, low HDL-C (<40 mg/dL), high waist circumference (>102 cm), BP≧130/≧85 mmHg. Since the study design calls for inclusion of abdominally obese men with waist circumference >102 cm, patients have at least 2 of the other 4 criteria to satisfy the NCEP criteria for the metabolic syndrome. Patients are randomized to placebo or treatment. Fasting blood samples are taken.
# Periodic measurements of insulin/glycemic response to oral glucose tolerance test (OGTT) and insulin sensitivity index, fasting plasma glucose (FPG), fasting lipid profile (includes triglycerides, total cholesterol, low-density lipoprotein cholesterol, non-high-density lipoprotein cholesterol, high-density lipoprotein cholesterol, and free fatty acids), visceral fat mass, and blood pressure are taken.
# as §1, with “taken. After a placebo run in, the treatment group receives daily administration of 0.5 mg N-(2,5-bis-trifluoromethyl-phenyl)-3-oxo-4-aza-4-methyl-5α-androst-1-ene-17β-carboxamide (dutasteride).” for “taken.”
# as §1, with “glucose ≧110” for “glucose≧110”, “taken. After a placebo run in, the treatment group receives daily administration of N-(2-trifluoromethyl-phenyl)-3-oxo-4-aza-4-methyl-5α-androst-1-ene-17β-carboxamide.” for “taken.”
# as §1, with “(≦450” for “(<450”, “glucose ≧110” for “glucose≧110”
# [1] = Example 6: daily administration (dose not given)
SMILES,tolerability of the treatment (Example 7: 25 mg daily),"increasing insulin sensitivity, treatment group relative to placebo (Example 7: 25 mg daily)","lowering triglycerides, treatment group relative to placebo (Example 7: 25 mg daily)","reducing visceral adipose tissue, treatment group relative to placebo (Example 7: 25 mg daily)",tolerability of the treatment [1],"increasing insulin sensitivity, treatment group relative to placebo [1]","lowering triglycerides, treatment group relative to placebo [1]","reducing visceral adipose tissue, treatment group relative to placebo [1]"
Cc1ccc(O[C@H]2C[C@H]3[C@@H]4[C@@H](C)C[C@H]5NC(=O)C=C[C@]5(C)[C@H]4CC[C@]3(C)C2)cc1 [3-oxo-4-aza-7β-methyl-16β-(4-methylphenoxy)-5α-androst-1-ene],well tolerated,significant improvement,significant improvement,significant improvement,,,,
CN1C(=O)C=C[C@]2(C)[C@H]3CC[C@]4(C)[C@@H](C(=O)Nc5ccccc5C(F)(F)F)CC[C@H]4[C@@H]3CC[C@@H]12 [N-(2-trifluoromethyl-phenyl)-3-oxo-4-aza-4-methyl-5α-androst-1-ene-17β-carboxamide],,,,,well tolerated,significant improvement,significant improvement,significant improvement
